The text below walks through data of patent US11089783B2, “2-(het)aryl-substituted fused heterocycle derivatives as pesticides” (Bayer Aktiengesellschaft, priority 2017, dated 2021).

Type in all cases: in vivo
Test [1] concerns Phaedon cochleariae. Kind of test: Phaedon cochleariae spray test (PHAECO S), cabbage leaves. The conditions noted are these: Phaedon cochleariae, 168 h, 7 dat, read-out: % efficacy. An outline of the steps: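 Cabbage leaves sprayed with active ingredient in emulsifier-containing water at 1000 ppm emulsifier, with ammonium salt or penetrant at 1000 ppm added where needed. Leaves then infested with mustard beetle larvae, and % kill scored after the set time.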

The subject of test [2] is Meloidogyne incognita. Kind of test: Meloidogyne incognita drench test (MELGIN D). Particulars: soil, 504 h, 21 dat, read-out: % efficacy. As for the experimental part:
[table] To produce an appropriate active ingredient formulation, 1 part by weight of active ingredient is mixed with the specified amounts of solvent and emulsifier and the concentrate is diluted to the desired concentration with water, it being necessary to take into account the volume of soil into which drenching is effected. It should be ensured that a concentration of 20 ppm of emulsifier in the soil is not exceeded. For production of further test concentrations, the mixture is diluted with water. Pots filled with soil (loamy sand) are drenched with the active ingredient solution. An egg/larvae suspension of the southern root-knot nematode (Meloidogyne incognita) is added, and lettuce seeds are scattered over the soil surface and covered with quartz sand. The lettuce seeds germinate and the seedlings develop. The root-knots develop on the roots. After the desired time, the nematicidal effect is determined with reference to the root-knot formation in %. 100% means that no root-knots were found; 0% means that the number of root-knots on the treated plants corresponds to that on the untreated control.

Test [3] concerns Aphis gossypii. Kind of test: Aphis gossypii spray test (APHIGO), cotton plants. The conditions noted are these: Aphis gossypii, 144 h, 4 ppm, 6 dat, read-out: % efficacy. The gist of the method:
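Cotton plants (Gossypium hirsutum) heavily infested with cotton aphids were sprayed with the active ingredient formulated in emulsifier-containing water (1000 ppm emulsifier), with ammonium salt or penetrant added at 1000 ppm where required. After the set time, percent kill was determined, where 100% means all aphids dead.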

Test [4] relates to Myzus persicae. Kind of test: Myzus persicae oral test. Particulars: 120 h, after 5 days, read-out: efficacy. An outline of the steps:
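Compound solution in IPL41 insect medium with sugar was sealed under parafilm, through which a mixed population of green peach aphids fed. Mortality was scored after 5 days as % efficacy, with 100% meaning all aphids killed.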

The subject of test [5] is Meloidogyne incognita. Kind of test: Meloidogyne incognita test (MELGIN). The conditions noted are these: Meloidogyne incognita, 336 h, 14 days (14 dat), read-out: efficacy (nematicidal, gall formation). The gist of the method: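 Sand with lettuce seeds, M. incognita egg/larvae suspension and aqueous dilution of compound concentrate. Nematicidal efficacy scored from gall (root-knot) formation after 14 days or the desired time, as % relative to untreated control (100% = no galls; 0% = as control).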

The test system of test [6] is Myzus persicae. Kind of test: Myzus persicae spray test (MYZUPE S), bell pepper plants. Particulars: 144 h, 6 dat, read-out: % efficacy. As for the experimental part: [table] To produce an appropriate active ingredient formulation, 1 part by weight of active ingredient is dissolved with the specified parts by weight of solvent and made up with water containing an emulsifier concentration of 1000 ppm until the desired concentration is attained. To produce further test concentrations, the mixture is diluted with emulsifier-containing water. If addition of ammonium salts or/and penetrants is required, these are each added to the preparation solution in a concentration of 1000 ppm. Bell pepper plants (Capsicum annuum) severely infested by the green peach aphid (Myzus persicae) are treated by spraying with the active ingredient formulation in the desired concentration. After the desired time, the kill in % is determined. 100% means that all the animals have been killed; 0% means that no animals have been killed.

Test [7] has as its system Spodoptera frugiperda. Kind of test: Spodoptera frugiperda spray test. Particulars: 100 g/ha, after 6 days. The method, then:
[table] To produce a suitable active ingredient formulation, 1 part by weight of active ingredient is dissolved with the specified parts by weight of solvent and made up to the desired concentration with water containing an emulsifier concentration of 1000 ppm. To produce further test concentrations, the formulation is diluted with emulsifier-containing water. Leaf discs of maize (Zea mays) are sprayed with an active ingredient formulation of the desired concentration and, after drying, populated with caterpillars of the armyworm (Spodoptera frugiperda). After 6 days, the efficacy in % is determined. 100% means that all the caterpillars have been killed; 0% means that no caterpillar has been killed.

The subject of test [8] is Musca domestica. Kind of test: Musca domestica test. Particulars: 100 ppm, adult houseflies, after 2 days. The method, then:
Solvent: dimethyl sulfoxide To produce a suitable active ingredient formulation, 10 mg of active ingredient are mixed with 0.5 ml of dimethyl sulfoxide, and the concentrate is diluted with water to the desired concentration. Vessels containing a sponge treated with sugar solution and the active ingredient formulation of the desired concentration are populated with 10 adult houseflies (Musca domestica). After 2 days, the kill in % is determined. 100% means that all of the flies have been killed; 0% means that none of the flies have been killed.

For `CCS(=O)(=O)c1ccc(NC(=O)NC)nc1-c1nc2cc(C(F)(F)C(F)(F)F)nnc2n1C` [Example I-08, 1-{5-(ethylsulfonyl)-6-[7-methyl-3-(pentafluoroethyl)-7H-imidazo[4,5-c]pyridazin-6-yl]pyridin-2-yl}-3-methylurea], the Emax at 4 ppm amounted to 70% in test [1] (4 ppm) and 95% in test [3]. Also, the Emax at 20 ppm in test [1] stood at 90%. Also, in test [2] (1 ppm), the Emax at 1 ppm came out at 100%. For the same compound, the Emax at 2 ppm in test [2] (2 ppm) was found to be 100%. Besides, in test [4], the pest or weed control at 0.8 ppm came out at 90%. Also, the pest or weed control at 20 ppm in test [5] came out at 100%.

Consider `CCS(=O)(=O)c1ccc(N(C)C(=O)NC)nc1-c1nc2cc(C(F)(F)C(F)(F)F)nnc2n1C` [Example I-09], for which, in test [4], the pest or weed control at 0.8 ppm was found to be 90%. In test [6] (0.16 ppm), the Emax at 0.16 ppm was 80%. Further, in test [6] (0.8 ppm), the Emax at 0.8 ppm was 100%. Moreover, the pest or weed control at 20 ppm in test [5] came to 100%.

Consider `CCNC(=O)Nc1ccc(S(=O)(=O)CC)c(-c2nc3cc(C(F)(F)C(F)(F)F)nnc3n2C)n1` [Example I-13], for which, in test [7], the efficacy came to 83%. Further, in test [4], the pest or weed control at 0.8 ppm is 100%. The “efficacy (kill)” value in test [8] is 80%. For the same compound, the pest or weed control at 20 ppm in test [5] was found to be 100%.

As for `CCS(=O)(=O)c1ccc(NC(=O)N(C)C)nc1-c1nc2cc(C(F)(F)C(F)(F)F)nnc2n1C` [Example I-10], the Emax at 20 ppm in test [1] was determined as 80%. Further, the Emax at 4 ppm in test [3] was determined as 75%. Also, the pest or weed control at 0.8 ppm in test [4] was determined as 100%. For the same compound, the “efficacy (kill)” value in test [8] was determined as 90%. In test [5], the pest or weed control at 20 ppm worked out at 100%.
